From patent US7365211B2, “Heterocyclic GABAA subtype selective receptor modulators” (Roche Palo Alto LLC, priority 2003, dated 2008)
Where “and” joins values, the source holds several entries; their conditions need not be identical. Equal values may be shown once. Where a name gives a salt, the structure may show the parent alone.

Target: T1, GABAA α1β2γ2 (Homo sapiens, UniProt P14867+P18507+P47870)
T1 construct: expressed in transfected cells; host or cells: HEK293
Test: 35S-TBPS binding assay (competition), HEK293 membranes with GABAA α1β2γ2 construct
Settings: 35S-TBPS (5 nM) competition, GABA 1 μM, 2 hours at room temperature, read-out: pIC50 α1β2γ2 (converted)
Experimental: (§1) The binding assay is based on the assay reported by K. Gee et al., Eur. J. Pharmacol. 1987 136:419-423.
(§2) Homogenate preparation: Membrane preparations of HEK293 cells containing either GABAA α1β2γ2 or GABAA α2β3γ2 constructs were performed according to a modified procedure previously described by Gee et al. (supra). Whole HEK 293 cells in D-PBS (calcium/magnesium free) buffer adjusted to pH 7.4 were centrifuged at 7,280×g for 20 m. After discarding the supernatant, the pellet was resuspended in the buffer and centrifuged at 1,820×g for 10 m. Afterwards, the supernatant was discarded and the pellet resuspended in ice-cold preparation buffer (50 mM Tris HCl pH 7.4, 4° C. and 150 mM KCl), homogenized for 30 sec using a Brinkmann Polytron PT3000 (setting 6) and centrifuged at 48,000×g for 30 m at 4° C. The centrifugation and homogenization procedure was repeated two more times for a total of 3 times before resuspending the membranes at a final protein concentration of 0.5 mg/mL. Aliquots (30 mL) of the final membrane preparation were then centrifuged at 48,000×g for 30 m, and the resulting pellets were stored at −80° C. until required.
(§3) 35S-TBPS binding assay. Membrane pellets containing either GABAA α1β2γ2 or GABAA α2β3γ2 constructs were thawed on ice, resuspended in 10 mL of 50 mM Tris HCl pH 7.4, 4° C. and 150 mM KCl and centrifuged at 48,000×g, 30 m at 4° C. After discarding the supernatant, the pellet was resuspended in 30 mL incubation buffer (50 mM Tris HCl pH 7.4, 25° C. and 150 mM KCl) at approximately 0.5 mg/mL protein concentration. In ^35S-TBPS competition studies, HEK293 membranes were incubated with ^35S-TBPS (5 nM final) and GABA (1 μM) in the absence or presence of competitor at concentrations ranging from 0.01 nM to 10 μM in 125 μL incubation buffer for 2 hours at room temperature (˜22° C.). Non-specific binding was assayed with picrotoxin (100 μM final concentration). […] Measurement of bound radioactivity was performed using a Packard Microplate 96 well topcount scintillation counter. […]

Row | SMILES | IC50 [nM]
1 | Cn1nc2c(-c3ccc(Cl)cc3Cl)cccc2c1Br [A27, 3-Bromo-7-(2,4-dichloro-phenyl)-2-methyl-2H-indazole] | 575
2 | Cc1c2cccc(-c3ccc(Cl)cc3Cl)c2nn1C [A14, 7-(2,4-Dichloro-phenyl)-2,3-dimethyl-2H-indazole; hydrochloride] | 295
3 | C=Cc1c2cccc(-c3ccc(Cl)cc3Cl)c2nn1C [A17, 7-(2,4-Dichloro-phenyl)-2-methyl-3-vinyl-2H-indazole] | 1170

Target: T2, GABAA α2β3γ2 (Homo sapiens, UniProt P18507+P28472+P47869)
T2 construct: expressed in transfected cells; host or cells: HEK293
Test: 35S-TBPS binding assay (competition), HEK293 membranes with GABAA α2β3γ2 construct
Settings: 35S-TBPS (5 nM) competition, GABA 1 μM, 2 hours at room temperature, read-out: pIC50 α2β3γ2 (converted)
Experimental: as §1, §2, §3

Row | SMILES | IC50 [nM]
4 | Cn1nc2c(-c3ccc(Cl)cc3Cl)cccc2c1Br [A27, 3-Bromo-7-(2,4-dichloro-phenyl)-2-methyl-2H-indazole] | 13.5
5 | Cc1c2cccc(-c3ccc(Cl)cc3Cl)c2nn1C [A14, 7-(2,4-Dichloro-phenyl)-2,3-dimethyl-2H-indazole; hydrochloride] | 30.9
6 | C=Cc1c2cccc(-c3ccc(Cl)cc3Cl)c2nn1C [A17, 7-(2,4-Dichloro-phenyl)-2-methyl-3-vinyl-2H-indazole] | 26.3

Tested on: not given
Test: not given
Settings: not given

Row | SMILES | melting point
7 | CNCc1c2cccc(-c3ccc(Cl)cc3Cl)c2nn1C.Cl | 211.1 to 213 °C
8 | Cc1cc(C)c(-c2cccc3c(N(C)C)n(C)nc23)c(C)c1.Cl | 169.9 to 171.9 °C
9 | Cn1nc2c(-c3ccc(Cl)cc3Cl)cccc2c1Br [A27, 3-Bromo-7-(2,4-dichloro-phenyl)-2-methyl-2H-indazole] | 137 to 139 °C
10 | Cl.Cn1cc2cccc(-c3ccc(Cl)cc3Cl)c2n1 | 133 to 147 °C
11 | Cn1nc2c(-c3ncc(Cl)cc3Cl)cccc2c1Br [A32, 3-Bromo-7-(3,5-dichloro-pyridin-2-yl)-2-methyl-2H-indazole] | 154.5 to 156.2 °C
12 | CO/N=C\c1c2cccc(-c3ccc(Cl)cc3Cl)c2nn1C [A22, 7-(2,4-Dichloro-phenyl)-2-methyl-2H-indazole-3-carbaldehyde O-methyl-oxime] | 159.2 to 160.5 °C
13 | Cc1cc(C#N)ccc1-c1cccc2cn(C)nc12 [A6, 3-Methyl-4-(2-methyl-2H-indazol-7-yl)-benzonitrile] | 101 to 105 °C
14 | Cn1nc2c(-c3ccc(Cl)cc3Cl)cccc2c1COC(N)=O | 184 to 185.5 °C
15 | Cl.Cn1nc2c(-c3ccc(Cl)cc3Cl)cccc2c1CNN | 172.5 to 176 °C
16 | Cn1cc2nccc(-c3ccc(Cl)cc3Cl)c2n1 [A35, 7-(2,4-Dichloro-phenyl)-2-methyl-2H-pyrazolo[4,3-b]pyridine] | 160.5 to 162.8 °C
17 | COC(=O)NCc1c2cccc(-c3ccc(Cl)cc3Cl)c2nn1C.Cl | 146.3 to 148.6 °C
18 | C#Cc1c2cccc(-c3ccc(Cl)cc3Cl)c2nn1C [A20, 7-(2,4-Dichloro-phenyl)-3-ethynyl-2-methyl-2H-indazole] | 129.9 to 130.9 °C
19 | CC/C=C(\CCC)c1c2cccc(-c3ccc(Cl)cc3Cl)c2nn1C.Cl | 148 to 150 °C
20 | COc1ccc(-c2cccc3c(N(C)C)n(C)nc23)c(C)c1.Cl | 166 to 167 °C
21 | CCCN(CCC)c1c2cccc(-c3ccc(Cl)cc3Cl)c2nn1C.Cl | 139 to 140 °C
22 | CC(=O)N(C)Cc1c2cccc(-c3ccc(Cl)cc3Cl)c2nn1C.Cl | 146.2 to 147.8 °C
23 | Cc1cc(C)c(-c2cccc3cn(C)nc23)c(C)c1 [A5, 2-Methyl-7-(2,4,6-trimethyl-phenyl)-2H-indazole] | 180 to 182 °C
24 | Cn1nc2c(-c3ccc(Cl)cc3Cl)cccc2c1C#N [A29, 7-(2,4-Dichloro-phenyl)-2-methyl-2H-indazole-3-carbonitrile] | 137 to 139 °C
25 | C=Cc1c2cccc(-c3c(C)cc(C)cc3C)c2nn1C [A18, 2-Methyl-7-(2,4,6-trimethyl-phenyl)-3-vinyl-2H-indazole] | 84.9 to 95.4 °C and 85 to 95 °C
26 | Cl.Cn1cc2ccnc(-c3ccc(Cl)cc3Cl)c2n1 | 190.9 to 195.5 °C
27 | Cn1cc2cncc(-c3ccc(Cl)cc3Cl)c2n1 [A34, 7-(2,4-Dichloro-phenyl)-2-methyl-2H-pyrazolo[4,3-c]pyridine] | 153.9 to 155.3 °C

The next lines start with the values.

Row | melting point | SMILES
28 | 171.3 to 173.2 °C | Cn1nc2c(-c3ccc(Cl)cc3Cl)cccc2c1NS(C)(=O)=O [D15, N-[7-(2,4-Dichloro-phenyl)-2-methyl-2H-indazol-3-yl]-methanesulfonamide]
29 | 98.8 to 104.5 °C | Cn1nc2c(-c3ccc(Cl)cc3Cl)cccc2c1CNC(=O)N1CCOCC1 [C11, Morpholine-4-carboxylic acid [7-(2,4-dichloro-phenyl)-2-methyl-2H-indazol-3-ylmethyl]-amide]
30 | 125.2 to 128 °C | CN(C)C(=O)OCc1c2cccc(-c3ccc(Cl)cc3Cl)c2nn1C [E6, Dimethyl-carbamic acid 7-(2,4-dichloro-phenyl)-2-methyl-2H-indazol-3-ylmethyl ester]
31 | 123.3 to 126.3 °C | CN(C)C(=O)Nc1c2cccc(-c3ccc(Cl)cc3Cl)c2nn1C [C15, 3-[7-(2,4-Dichloro-phenyl)-2-methyl-2H-indazol-3-yl]-1,1-dimethyl-urea]
32 | 119 to 120.9 °C | COCc1c2cccc(-c3ccc(Cl)cc3Cl)c2nn1C [E3, 7-(2,4-Dichloro-phenyl)-3-methoxymethyl-2-methyl-2H-indazole]
33 | 101.9 to 105.1 °C | CN(C)C(=O)NCc1c2cccc(-c3ccc(Cl)cc3Cl)c2nn1C [C13, 3-[7-(2,4-Dichloro-phenyl)-2-methyl-2H-indazol-3-ylmethyl]-1,1-dimethyl-urea]
34 | 157.8 to 161.7 °C | Cn1nc2c(-c3ccc(Cl)cc3Cl)cccc2c1S(=O)(=O)CCO [D5, 2-[7-(2,4-Dichloro-phenyl)-2-methyl-2H-indazole-3-sulfonyl]-ethanol]
35 | 182.1 to 183.4 °C | Cn1nc2c(-c3ccc(Cl)cc3Cl)cccc2c1S(C)(=O)=O [D-2, 3-Methanesulfonyl-2-methyl-7-(2,4-dichloro-phenyl)-2H-indazole]
36 | 197.3 to 201.2 °C | Cn1nc2c(-c3ccc(Cl)cc3Cl)cccc2c1CO [E4]
37 | 131.7 to 135.2 °C | CC(=O)OCc1c2cccc(-c3ccc(Cl)cc3Cl)c2nn1C [E5, Acetic acid [7-(2,4-dichloro-phenyl)-2-methyl-2H-indazol-3-yl]-methyl ester]
38 | 170.7 to 173.6 °C | Cn1nc2c(-c3ccc(Cl)cc3Cl)cccc2c1S(N)(=O)=O [D3, 7-(2,4-Dichloro-phenyl)-2-methyl-2H-indazole-3-sulfonic acid amide]
39 | 246 to 247 °C | Cc1cc(C)c(-c2cccc3c(C(C)O)n(C)nc23)c(C)c1 (stereo not drawn) [E1, 1-[2-Methyl-7-(2,4,6-trimethyl-phenyl)-2H-indazol-3-yl]-ethanol]
